# In patent US7205304B2, “Sulfonyl-Derivatives as novel inhibitors of histone deacetylase” (Janssen Pharmaceutica N.V., priority 2002, dated 2007):
# Legend:
# [1] = target: histone deacetylase (HeLa nuclear extracts); assay: In vitro assay for inhibition of histone deacetylase; assay type: biochemical; conditions: [3H]acetylated histone H4 peptide substrate
# Description: The in vitro assay for inhibition of histone deacetylase (see example C.1) measures the inhibition of HDAC enzymatic activity obtained with the compounds of formula (I).
# HeLa nuclear extracts (supplier: Biomol) were incubated at 60 μg/ml with 2×10^−8 M of radiolabeled peptide substrate. As a substrate for measuring HDAC activity a synthetic peptide, i.e. the amino acids 14–21 of histone H4, was used. The substrate is biotinylated at the NH2-terminal part with a 6-aminohexanoic acid spacer, and is protected at the COOH-terminal part by an amide group and specifically [^3H]acetylated at lysine 16. The substrate, biotin-(6-aminohexanoic)Gly-Ala-([^3H]-acetyl-Lys-Arg-His-Arg-Lys-Val-NH2), was added in a buffer containing 25 mM Hepes, 1 M sucrose, 0.1 mg/ml BSA and 0.01% Triton X-100 at pH 7.4. After 30 min the deacetylation reaction was terminated by the addition of HCl and acetic acid. (final concentration 0.035 mM and 3.8 mM respectively). After stopping the reaction, the free ^3H-acetate was extracted with ethylacetate. After mixing and centrifugation, the radioactivity in an aliquot of the upper (organic) phase was counted in a β-counter.
# For each experiment, controls (containing HeLa nuclear extract and DMSO without compound), a blank incubation (containing DMSO but no HeLa nuclear extract or compound) and samples (containing compound dissolved in DMSO and HeLa nuclear extract) were run in parallel. In first instance, compounds were tested at a concentration of 10^−5M. […] In each test the blank value was substracted from both the control and the sample values. The control sample represented 100% of substrate deactylation. For each sample the radioactivity was expressed as a percentage of the mean value of the controls. […] Herein the effects of test compounds are expressed as pIC50 (the negative log value of the IC50-value).
# [2] = system: A2780 ovarian carcinoma cells; assay: Antiproliferative activity on A2780 cells (MTT); assay type: cell-based, human; conditions: Homo sapiens, A2780, 96 h, four days of incubation, read-out: Cellular activity pIC50 (converted)
# Description: Cellular activity of the compounds of formula (I) was determined on A2780 tumour cells using a colorimetric assay for cell toxicity or survival (Mosmann Tim, Journal of Immunological Methods 65: 55–63, 1983)(see example C.2).
# All compounds tested were dissolved in DMSO and further dilutions were made in culture medium. Final DMSO concentrations never exceeded 0.1% (v/v) in cell proliferation assays. Controls contained A2780 cells and DMSO without compound and blanks contained DMSO but no cells. MTT was dissolved at 5 mg/ml in PBS. A glycine buffer comprised of 0.1 M glycine and 0.1 M NaCl buffered to pH 10.5 with NaOH (1 N) was prepared (all reagents were from Merck).
# The human A2780 ovarian carcinoma cells (a kind gift from Dr. T. C. Hamilton [Fox Chase Cancer Centre, Pennsylvania, USA]) were cultured in RPMI 1640 medium supplemented with 2 mM L-glutamine, 50 μg/ml gentamicin and 10% fetal calf serum. Cells were routinely kept as monolayer cultures at 37° C. in a humidified 5% CO2 atmosphere. Cells were passaged once a week using a trypsin/EDTA solution at a split ratio of 1:40. All media and supplements were obtained from Life Technologies. Cells were free of mycoplasma contamination as determined using the Gen-Probe Mycoplasma Tissue Culture kit (supplier: BioMérieux).
# Cells were seeded in NUNC™ 96-well culture plates (Supplier: Life Technologies) and allowed to adhere to the plastic overnight. Densities used for plating were 1500 cells per well in a total volume of 200 μl medium. After cell adhesion to the plates, medium was changed and drugs and/or solvents were added to a final volume of 200 μl. Following four days of incubation, medium was replaced by 200 μl fresh medium and cell density and viability was assessed using an MTT-based assay. To each well, 25 μl MTT solution was added and the cells were further incubated for 2 hours at 37° C. The medium was then carefully aspirated and the blue MTT-formazan product was solubilized by addition of 25 μl glycine buffer followed by 100 μl of DMSO. […] Within an experiment, the results for each experimental condition are the mean of 3 replicate wells. For initial screening purposes, compounds were tested at a single fixed concentration of 10^−6 M. For active compounds, the experiments were repeated to establish full concentration-response curves. For each experiment, controls (containing no drug) and a blank incubation (containing no cells or drugs) were run in parallel. The blank value was subtracted from all control and sample values. For each sample, the mean value for cell growth (in absorbance units) was expressed as a percentage of the mean value for cell growth of the control. […] Herein the effects of test compounds are expressed as pIC50 (the negative log value of the IC50-value).
# [3] = Kinetic solubility in aqueous media (nephelometry); assay type: physicochemical; conditions: phosphate citrate buffer, pH 7.4, aqueous buffer, kinetic from dmso stock, phosphate citrate buffer pH 7.4, turbidity of three dilution steps; read-out: Solubility Score
# Description: Kinetic solubility in aqueous media measures the ability of a compound to stay in aqueous solution upon dilution (see example C.3).
# DMSO-stock solutions are diluted with a single aqueous buffer solvent in 3 consecutive steps. For every dilution turbidity is measured with a nephelometer.
# In the first dilution step, 10 μl of a concentrated stock-solution of the active compound, solubilized in DMSO (5 mM), was added to 100 μl phosphate citrate buffer pH 7.4 and mixed. In the second dilution step, an aliquot (20 μl) of the first dilution step was further dispensed in 100 μl phosphate citrate buffer pH 7.4 and mixed. Finally, in the third dilution step, a sample (20 μl) of the second dilution step was further diluted in 100 μl phosphate citrate buffer pH 7.4 and mixed. All dilutions were performed in 96-well plates. Immediately after the last dilution step the turbidity of the three consecutive dilution steps were measured with a nephelometer. Dilution was done in triplicate for each compound to exclude occasional errors. Based on the turbidity measurements a ranking is performed into 3 classes. Compounds with high solubility obtained a score of 3 and for this compounds the first dilution is clear. Compounds with medium solubility obtained a score of 2. For these compounds the first dilution is unclear and the second dilution is clear. […] The solubility of 112 compounds was measured.
SMILES,Enzyme activity pIC50 [1],IC50 [2] [µM],solubility [3] [µM]
CC(C)(C)c1ccc(-c2ccc(S(=O)(=O)N3CCN(c4ncc(C(=O)NO)cn4)CC3)cc2)cc1 [Compound 105],6.494,0.798,< 75.8
O=C(NO)c1cnc(N2CCN(S(=O)(=O)c3ccc(/C=C/c4ccccc4)cc3)CC2)nc1 [Compound 109],7.176,0.258,75.8 to 454
Cc1noc(C)c1-c1ccc(S(=O)(=O)N2CCN(c3ncc(C(=O)NO)cn3)CC2)cc1 [Compound 112],7.54,0.33,> 454
O=C(NO)c1cnc(N2C[C@@H]3C[C@H]2CN3S(=O)(=O)c2ccc3ccccc3c2)nc1 [Compound 114],7.428,0.75,> 454
CN(C)Cc1sccc1-c1ccc(S(=O)(=O)N2CCN(c3ncc(C(=O)NO)cn3)CC2)cc1 [Compound 124],8.358,0.0479,> 454
O=C(NO)c1cnc(N2CCN(S(=O)(=O)c3ccc(-c4ccccc4OCCN4CCCC4)cc3)CC2)nc1 [Compound 125],8.659,0.0931,75.8 to 454
O=C(NO)c1cnc(N2CCN(S(=O)(=O)c3ccc(-c4cccc(CCN5CCCC5)c4)cc3)CC2)nc1 [Compound 127],8.482,0.0689,> 454
COc1ccc(-c2ccc(S(=O)(=O)N3CCN(c4ncc(C(=O)NO)cn4)CC3)cc2)c(OC)c1OC [Compound 134],7.662,0.316,75.8 to 454
CN(C)c1cccc(-c2ccc(S(=O)(=O)N3CCN(c4ncc(C(=O)NO)cn4)CC3)cc2)c1 [Compound 135],7.631,0.287,> 454
Cc1cc(C)cc(-c2ccc(S(=O)(=O)N3CCN(c4ncc(C(=O)NO)cn4)CC3)cc2)c1 [Compound 136],7.288,0.513,< 75.8

# Further lines, results first:
Enzyme activity pIC50 [1],IC50 [2] [µM],solubility [3] [µM],SMILES
7.586,0.149,75.8 to 454,COc1ccccc1-c1ccc(S(=O)(=O)N2CCN(c3ncc(C(=O)NO)cn3)CC2)cc1 [Compound 103]
7.797,0.258,75.8 to 454,Cc1ccccc1-c1ccc(S(=O)(=O)N2CCN(c3ncc(C(=O)NO)cn3)CC2)cc1 [Compound 106]
7.663,0.144,75.8 to 454,O=C(NO)c1cnc(N2CCN(S(=O)(=O)c3ccc(-c4ccc(F)cc4F)cc3)CC2)nc1 [Compound 107]
8.117,0.209,< 75.8,O=C(NO)c1cnc(N2CCN(S(=O)(=O)c3ccc(-c4ccccc4Cl)cc3)CC2)nc1 [Compound 108]
7.713,0.445,75.8 to 454,O=C(NO)c1cnc(N2CCN(S(=O)(=O)c3ccc(-c4ccccc4C(F)(F)F)cc3)CC2)nc1 [Compound 110]
7.561,0.44,< 75.8,O=C(NO)c1cnc(N2CCN(S(=O)(=O)c3ccc(-c4cccc5cccnc45)cc3)CC2)nc1 [Compound 111]
8.078,0.0813,75.8 to 454,O=C(NO)c1cnc(N2CCN(S(=O)(=O)c3ccc(-c4ccccc4)cc3)CC2)nc1 [Compound 128]
6.159,0.752,75.8 to 454,O=C(NO)c1cnc(N2CCN(S(=O)(=O)c3ccc(-c4cccc5c4sc4ccccc45)cc3)CC2)nc1 [Compound 130]
6.058,0.546,75.8 to 454,O=C(NO)c1cnc(N2CCN(S(=O)(=O)c3ccc(-c4cccc5c4oc4ccccc45)cc3)CC2)nc1 [Compound 131]
7.869,1.26,75.8 to 454,Cc1cccc(C)c1-c1ccc(S(=O)(=O)N2CCN(c3ncc(C(=O)NO)cn3)CC2)cc1 [Compound 133]
